According to patent US6737383B1, “Herbicidal oxadiazolidines” (priority 1999, dated 2004):

Tests used:
bedstraw = assay: Test B pre/postemergence bedstraw; type: in vivo, Galium aparine; conditions: scale of 0 to 10 where 0 is no effect and 10 is complete control
Method in brief: (§1)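 Herbicidal effect was estimated by eye on a ten-point control scale after plants spent twelve to sixteen days in a greenhouse following soil or foliar treatment. Foliar sprays targeted plants at one to four leaves; all doses were formulated in a non-phytotoxic solvent with surfactant.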

blackgrass = assay: Test B pre/postemergence blackgrass; type: in vivo, Alopecurus myosuroides
Method in brief: as §1

surinam grass = assay: Test B pre/postemergence surinam grass; type: in vivo, Brachiaria decumbens
Method in brief: as §1

cocklebur = assay: Test B pre/postemergence cocklebur; type: in vivo, Xanthium strumarium
Method in brief: as §1

corn = assay: Test B pre/postemergence corn; type: in vivo, Zea mays
Method in brief: as §1

crabgrass = assay: Test B pre/postemergence crabgrass; type: in vivo, Digitaria sanguinalis
Method in brief: as §1

giant foxtail = assay: Test B pre/postemergence giant foxtail; type: in vivo, Setaria faberii
Method in brief: as §1

morningglory = assay: Test B pre/postemergence morningglory; type: in vivo, Ipomoea hederacea
Method in brief: as §1

pigweed = assay: Test B pre/postemergence pigweed; type: in vivo, Amaranthus retroflexus
Method in brief: as §1

rape = assay: Test B pre/postemergence rape; type: in vivo, Brassica napus
Method in brief: as §1

soybean = assay: Test B pre/postemergence soybean; type: in vivo, Glycine max
Method in brief: as §1

sugar beet = assay: Test B pre/postemergence sugar beet; type: in vivo, Beta vulgaris
Method in brief: as §1

velvetleaf = assay: Test B pre/postemergence velvetleaf; type: in vivo, Abutilon theophrasti
Method in brief: as §1

wheat = assay: Test B pre/postemergence wheat; type: in vivo, Triticum aestivum
Method in brief: as §1

wild oat = assay: Test B pre/postemergence wild oat; type: in vivo, Avena fatua
Method in brief: as §1

purple nutsedge = assay: Test B pre/postemergence purple nutsedge; type: in vivo, Cyperus rotundus
Method in brief: as §1

rice = assay: Test B flood test rice; type: in vivo, Oryza sativa
Method in brief: (§2)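 Flood test on plants grown to the 2-leaf stage; treated plants kept in greenhouse twelve to sixteen days, then visually rated against controls on a 0 (no effect) to 10 (complete control) scale.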

smallflower flatsedge = assay: Test B flood test smallflower flatsedge; type: in vivo, Cyperus difformis
Method in brief: as §2

duck salad = assay: Test B flood test duck salad; type: in vivo, Heteranthera limosa
Method in brief: as §2

bamyardgrass = assay: Test B flood test barnyardgrass; type: in vivo, Echinochloa crus-galli
Method in brief: as §2

[1] = Preemergence, Rate 250 g/ha, scale of 0 to 10 where 0 is no effect and 10 is complete control
[2] = Preemergence, Rate 500 g/ha, scale of 0 to 10 where 0 is no effect and 10 is complete control
[3] = Rate 62 g/ha, Postemergence, scale 0 to 10, 0 no effect, 10 complete control
[4] = Rate 125 g/ha, Postemergence, scale of 0 to 10 where 0 is no effect and 10 is complete control
[5] = Rate 250 g/ha, Postemergence, scale of 0 to 10 where 0 is no effect and 10 is complete control
[6] = Rate 500 g/ha, Postemergence, scale 0 to 10, 0 no effect, 10 complete control
[7] = Rate 62 g/ha, headed Pre-emergence (flood test species), scale 0 to 10 (0 no effect, 10 complete control)
[8] = Rate 125 g/ha, Pre-emergence, flood test species, scale 0 to 10 where 0 is no effect and 10 is complete control
[9] = Rate 250 g/ha, Pre-emergence, flood-test species, scale 0 to 10, 0 is no effect, 10 is complete control
[10] = Rate 500 g/ha, Pre-emergence, flood test species, scale 0 to 10 (0 no effect, 10 complete control)

SMILES: CCc1cccc(CC)c1-n1c(=O)on(C(=O)N(c2ccccc2)C(C)C)c1=O [Compound 305]
- Bedstraw plant response rating (bedstraw; Preemergence, Rate 250 g/ha): 0
- Bedstraw plant response rating (bedstraw; Preemergence, Rate 500 g/ha): 0
- Bedstraw plant response rating (bedstraw; Rate 125 g/ha, Postemergence): 0
- Blackgrass plant response rating (0 to 10 scale) (blackgrass; Preemergence, Rate 125 g/ha): 0
- Blackgrass plant response rating (blackgrass; [1]): 0
- Blackgrass plant response rating (blackgrass; [2]): 4
- Blackgrass plant response rating (blackgrass; [3]): 0
- Blackgrass plant response rating (blackgrass; [4]): 0
- Plant response rating, Blackgrass (blackgrass; [5]): 0
- Blackgrass plant response rating (blackgrass; [6]): 0
- B. signalgrass plant response rating (0 to 10 scale, 0 is no effect, 10 is complete control) (surinam grass; Preemergence, Rate 125 g/ha): 0
- B. signalgrass plant response rating (surinam grass; [1]): 0
- B. signalgrass plant response rating (surinam grass; [2]): 5
- B. signalgrass plant response rating (surinam grass; [3]): 0
- B. signalgrass plant response rating (surinam grass; [4]): 0
- Plant response rating, B. signalgrass (surinam grass; [5]): 0
- B. signalgrass plant response rating (surinam grass; [6]): 0
- Cocklebur plant response rating (0 to 10 scale) (cocklebur; Preemergence, Rate 125 g/ha): 0
- Cocklebur plant response rating (cocklebur; [1]): 0
- Cocklebur plant response rating (cocklebur; [2]): 0
- Cocklebur plant response rating (cocklebur; [3]): 0
- Cocklebur plant response rating (cocklebur; [4]): 0
- Plant response rating, Cocklebur (cocklebur; [5]): 0
- Cocklebur plant response rating (cocklebur; [6]): 0
- Corn plant response rating (0 to 10 scale) (corn; Preemergence, Rate 125 g/ha): 0
- Corn plant response rating (corn; [1]): 0
- Corn plant response rating (corn; [2]): 0
- Corn plant response rating (corn; [3]): 0
- Corn plant response rating (corn; [4]): 0
- Plant response rating, Corn (corn; [5]): 0
- Corn plant response rating (corn; [6]): 0
- Crabgrass plant response rating (0 to 10 scale) (crabgrass; Preemergence, Rate 125 g/ha): 4
- Crabgrass plant response rating (crabgrass; [1]): 6
- Crabgrass plant response rating (crabgrass; [2]): 7
- Crabgrass plant response rating (crabgrass; [3]): 0
- Crabgrass plant response rating (crabgrass; [4]): 0
- Plant response rating, Crabgrass (crabgrass; [5]): 0
- Giant foxtail plant response rating (0 to 10 scale) (giant foxtail; Preemergence, Rate 125 g/ha): 8
- Giant foxtail plant response rating (giant foxtail; [1]): 9
- Giant foxtail plant response rating (giant foxtail; [2]): 10
- Giant foxtail plant response rating (giant foxtail; [3]): 0
- Giant foxtail plant response rating (giant foxtail; [4]): 0
- Plant response rating, Giant foxtail (giant foxtail; [5]): 0
- Morningglory plant response rating (0 to 10 scale) (morningglory; Preemergence, Rate 125 g/ha): 0
- Morningglory plant response rating (morningglory; [1]): 0
- Morningglory plant response rating (morningglory; [2]): 0
- Morningglory plant response rating (morningglory; [3]): 0
- Morningglory plant response rating (morningglory; [4]): 0
- Plant response rating, Morningglory (morningglory; [5]): 0
- Redroot pigweed plant response rating (0 to 10 scale) (pigweed; Preemergence, Rate 125 g/ha): 0
- Redroot pigweed plant response rating (pigweed; [1]): 3
- Redroot pigweed plant response rating (pigweed; [2]): 7
- Redroot pigweed plant response rating (pigweed; [3]): 3
- Redroot pigweed plant response rating (pigweed; [4]): 3
- Plant response rating, Redroot pigweed (pigweed; [5]): 4
- Rape plant response rating (0 to 10 scale) (rape; Preemergence, Rate 125 g/ha): 0
- Rape plant response rating (rape; [1]): 0
- Rape plant response rating (rape; [2]): 0
- Rape plant response rating (rape; [3]): 0
- Rape plant response rating (rape; [4]): 0
- Plant response rating, Rape (rape; [5]): 0
- Soybean plant response rating (0 to 10 scale) (soybean; Preemergence, Rate 125 g/ha): 0
- Soybean plant response rating (soybean; [1]): 0
- Soybean plant response rating (soybean; [2]): 0
- Soybean plant response rating (soybean; [3]): 4
- Soybean plant response rating (soybean; [4]): 4
- Plant response rating, Soybean (soybean; [5]): 4
- Sugarbeets plant response rating (0 to 10 scale) (sugar beet; Preemergence, Rate 125 g/ha): 0
- Sugarbeets plant response rating (sugar beet; [1]): 0
- Sugarbeets plant response rating (sugar beet; [2]): 3
- Sugarbeets plant response rating (sugar beet; [3]): 0
- Sugarbeets plant response rating (sugar beet; [4]): 0
- Plant response rating, Sugarbeets (sugar beet; [5]): 0
- Velvetleaf plant response rating (0 to 10 scale) (velvetleaf; Preemergence, Rate 125 g/ha): 0
- Velvetleaf plant response rating (velvetleaf; [1]): 0
- Velvetleaf plant response rating (velvetleaf; [2]): 0
- Velvetleaf plant response rating (velvetleaf; [3]): 0
- Velvetleaf plant response rating (velvetleaf; [4]): 0
- Plant response rating, Velvetleaf (velvetleaf; [5]): 0
- Wheat plant response rating (0 to 10 scale) (wheat; Preemergence, Rate 125 g/ha): 0
- Wheat plant response rating (wheat; [1]): 0
- Wheat plant response rating (wheat; [2]): 0
- Wheat plant response rating (wheat; [3]): 0
- Wheat plant response rating (wheat; [4]): 0
- Plant response rating, Wheat (wheat; [5]): 0
- Wild oats plant response rating (0 to 10 scale) (wild oat; Preemergence, Rate 125 g/ha): 0
- Wild oats plant response rating (wild oat; [1]): 0
- Wild oats plant response rating (wild oat; [2]): 1
- Wild oats plant response rating (wild oat; [3]): 0
- Wild oats plant response rating (wild oat; [4]): 0
- Plant response rating, Wild oats (wild oat; [5]): 0
- Nutsedge plant response rating (0 to 10 scale) (purple nutsedge; Preemergence, Rate 125 g/ha): 0
- Nutsedge plant response rating (purple nutsedge; [1]): 0
- Nutsedge plant response rating (purple nutsedge; [3]): 0
- Nutsedge plant response rating (purple nutsedge; [4]): 0
- Plant response rating, Nutsedge (purple nutsedge; [5]): 0
- Rice plant response rating (rice; [7]): 0
- Rice plant response rating (rice; [8]): 0
- Rice plant response rating (rice; [9]): 0
- Rice plant response rating (rice; [10]): 0
- S. Flatsedge plant response rating (smallflower flatsedge; [7]): 0
- S. Flatsedge plant response rating (smallflower flatsedge; [8]): 0
- S. Flatsedge plant response rating (smallflower flatsedge; [9]): 0
- S. Flatsedge plant response rating (smallflower flatsedge; [10]): 0
- Ducksalad plant response rating (duck salad; [7]): 0
- Ducksalad plant response rating (duck salad; [8]): 0
- Ducksalad plant response rating (duck salad; [9]): 0
- Ducksalad plant response rating (duck salad; [10]): 0
- Barnyardgrass plant response rating (bamyardgrass; [7]): 0
- Barnyardgrass plant response rating (bamyardgrass; [8]): 0
- Barnyardgrass plant response rating (bamyardgrass; [9]): 0
- Barnyardgrass plant response rating (bamyardgrass; [10]): 0
